Data as given in patent publication US12655090B2, “Cyclopropylamide compounds against parasites in fish” (Intervet Inc., priority 2021, dated 2026).
Where two headings read alike, the source gives them in different places.

Experiments:
[1] = tested on: Lepeophtheirus salmonis sea lice on salmon (Salmo salar); experiment: Salmon in vivo efficacy trial using in-feed administration; details: 1 mg/kg fish biomass via coated feed for 7 consecutive days; for therapeutic efficacy against juvenile sea lice: day -3 infestation, counted around day 25; for therapeutic efficacy against (pre-)adult sea lice: day -28 infestation, counted around day 8
Method: Commercial fish feed pellets were coated with formulated test compound. As formulation DMSO 5%/fish oil 95% was used. Salmon (Salmo salar) were treated orally with 1 mg/kg fish biomass via coated feed for 7 consecutive days. Salmon of the negative control groups received only feed coated with the excipients of the formulation. Fish of the therapeutic groups were infested with Lepeophtheirus salmonis copepodids twice before treatment (around day −28 and day −3).

[2] = tested on: fully susceptible Lepeophtheirus salmonis isolate, mobile sea lice stages; experiment: Sea lice resistance assay, sensitive isolate
Method: (§1) A sea lice resistance assay was carried out using mobile sea lice stages (i.e., pre-adults, adults) of several Lepeophtheirus salmonis-isolates with known resistance profiles (i.e., fully susceptible or multiresistant (resistant to azametiphos (OP), emamectin benzoate (ML), deltamethrin (SP)). Sea lice were exposed to seawater spiked with declining concentrations of a test compound (dissolved in a PEG300/sea-water mixture). Sea lice inhibition (% of dead+damaged sea lice) was assessed after approximately 24 and 48 hours of continuous exposure in comparison to a negative (solvent) control group.

[3] = tested on: Lepeophtheirus salmonis sea lice on salmon (Salmo salar); experiment: Salmon in vivo efficacy trial using gavage administration; details: po
Method: Salmon (Salmo salar) were treated once orally by gavage at a dose of 5 mg/kg bodyweight per fish (Day 0). As formulation DMSO 5%/fish oil 95% was used. Salmon of the negative control group received only the excipients of the formulation. The fish were infested with Lepeophtheirus salmonis copepodids twice before treatment (i.e., around day −28 and day −3) and once after treatment (i.e., day 17). […] Around day 28 (end of animal phase), fish were euthanized, and lice on each fish were classified ((pre-)adult or juvenile stage) and counted. […] Efficacy is expressed as a % reduction of sea lice in treated groups versus a control group, using the Abbott's formula.

[4] = tested on: Copepodids (juvenile sea lice stage of Lepeophtheirus salmonis); experiment: Juvenile sea lice contact assay; details: approximately 24 hours continuous exposure in seawater, read-out: Sea lice inhibition (% of dead+damaged copepodids)
Method: Copepodids (juvenile sea lice stage of Lepeophtheirus salmonis) were exposed to seawater spiked with declining concentrations of a test compound (dissolved in a DMSO sea-water mixture). Sea lice inhibition (% of dead+damaged copepodids) was assessed after approximately 24 hours of continuous exposure. The vitality of used parasites was confirmed in a negative (solvent) control group.

[5] = tested on: multiresistant Lepeophtheirus salmonis isolate (resistant to azametiphos, emamectin benzoate, deltamethrin), mobile sea lice stages; experiment: Sea lice resistance assay, multi-resistant isolate
Method: as §1

[6] = tested on: Mobile stages of sea lice (pre-adults, adults of Lepeophtheirus salmonis); experiment: Adult sea lice contact assay; details: assessed after approximately 1 and 24 hours of continuous exposure, read-out: EC50 (sea lice inhibition, dead+damaged sea lice)
Method: Mobile stages of sea lice (i.e., pre-adults, adults of Lepeophtheirus salmonis) were exposed to seawater spiked with declining concentrations of a test compound (dissolved in a PEG sea-water mixture). Sea lice inhibition (% of dead+damaged sea lice) was assessed after approximately 1 and 24 hours of continuous exposure in comparison to a negative (solvent) control group.

[7] = 168 h, read-out: therapeutic efficacy against (pre-)adult sea lice (% reduction vs control, Abbott's formula), once orally by gavage 5 mg/kg bodyweight, day -28 infestation, counted at day 7
[8] = 672 h, read-out: prophylactic efficacy at re-infestation on Day 17 (% reduction vs control, Abbott's formula), once orally by gavage 5 mg/kg bodyweight, re-infestation day 17, counted around day 28
[9] = 672 h, read-out: therapeutic efficacy against juvenile sea lice (% reduction vs control, Abbott's formula), once orally by gavage 5 mg/kg bodyweight, day -3 infestation, counted around day 28

Row | Structure (SMILES) | therapeutic efficacy against juvenile sea lice [1] [%] | therapeutic efficacy against (pre-)adult sea lice [1] [%] | prophylactic efficacy against re-infestation after treatment (D14) [1] [%] | prophylactic efficacy against re-infestation after treatment (D28) [1] [%] | EC50 ([2]; after 24 hours) [ppb] | EC50 ([2]; after 48 hours) [ppb] | inhibition in vivo at 5 mg/kg [3, 7] [%] | inhibition in vivo at 5 mg/kg [3, 8] [%] | inhibition in vivo at 5 mg/kg [3, 9] [%] | inhibition at 0.001 µM ([4]; test concentration 1 nM) [%] | EC50 ([5]; after 24 hours) [ppb] | EC50 ([5]; after 48 hours) [ppb] | EC50 [6] [nM] | inhibition at 0.0001 µM ([4]; test concentration 0.1 nM) [%]
1 | N#CC1(NC(=O)c2cc(NC(=O)[C@H]3[C@H](c4cc(Cl)cc(Cl)c4)C3(Cl)Cl)ccc2Cl)CC1 [Compound 1590] | 100 | 100 | 100 | 79.2 | 4.12 | 0.40 | 100 | 80 | 80 | 80 | 3.75 | 0.58 | ≤ 1 | 
2 | N#CC1(NC(=O)c2cc(NC(=O)[C@H]3[C@H](c4cc(Cl)cc(Cl)c4)C3(Cl)Cl)cc(F)c2F)CC1 [Compound 1594] | 100 | 100 | 100 | 100 |  |  | 100 | 100 | 100 |  |  |  | ≤ 1 | 80
